In patent publication US7842808B2, “Anti-migraine spirocycles” (Bristol-Myers Squibb Company, priority 2002, dated 2010):

Tested on: CGRP-induced increase in laser Doppler facial blood flow
Experiment: Non-terminal laser Doppler facial blood flow model in non-human primate
Format: in vivo, common marmoset (Callithrix jacchus)
Details: iv, CGRP 10 μg/kg
Description: Overview. […] Non-human primates (e.g., marmosets) are the only animals known to have human-like CGRP receptor pharmacology conferred by the presence of the specific amino acid residue (Trp74) in their RAMP1 sequence which is responsible for the phenotype of the human receptor (Mallee et al. J Biol Chem 2002 277:14294). […] Peptide and small-molecule CGRP-receptor antagonists were used to validate the non-human primate model.
Animals. Adult male and female common marmosets (Callithrix jacchus) purchased from Harlan and weighing 350-550 g served as subjects. Other mammals endogenously expressing RAMP1 having Trp 74 or transgenic mammals with humanized RAMP1 having Trp 74 can also be employed in A compound described herein.
Anesthesia & Surgical Preparation. Animals are anesthetized by isoflurane inhalation in an induction chamber (4-5% rapid induction, maintained with 1-2.5%; Solomon et al., 1999). Anesthesia is maintained by delivering a constant supply of air:oxygen (50:50) and isoflurane via face mask, or by intubation and ventilation (with blood gas monitoring). Body temperature is maintained at 38±0.5° C. by placement on an automated temperature controlled surface with rectal probe. A small area of fur (approx. 1.5 cm square) is removed from one or both sides of the face by application of a depilatory cream and/or shaving. Surgical areas are clipped and prepared with betadine. An i.v. line is placed in any accessible vein for the administration of test compounds and CGRP-receptor agonist and, if needed, withdrawal of blood samples (max 2.5 ml, 10%) for blood gas monitoring and content analysis. A solution of 5% dextrose is administered i.v. in order to maintain blood sugar levels. Anesthesia depth is monitored by measuring blood pressure and heart rate using a non-invasive arm cuff method and a pulse oximeter, respectively. Guanethidine 5-10 mg/kg i.v., supplemented with 5 mg/kg i.v. as needed, may be given to stabilize the peak flux in facial blood flow seen with repeated stimulation-induced changes in blood flow (Escott et al., 1999; incorporated by reference herein). Microvascular blood flow is monitored by attaching a self adhesive laser Doppler flow probe to the facial skin.
Compound Administration Test compounds may be administered i.v. (0.01-5 ml/kg), i.m. (0.01-0.5 ml/kg), s.c. (0.01-5 ml/kg) or p.o. (0.1-10 ml/kg) (Diehl et al., 2001; incorporated by reference herein). CGRP-receptor agonists may be delivered i.v. (0.01-5 ml/kg), i.d. (10-100 μl/site) or s.c. (10-100 μl/site).

Structure (SMILES)	% Inhibition of CGRP-induced increase in laser Doppler facial blood flow (0.03 mg/kg)	% Inhibition of CGRP-induced increase in laser Doppler facial blood flow (0.1 mg/kg)
Cc1cc(CC(CC(=O)N2CCC(N3Cc4ccccc4NC3=O)CC2)C(=O)N2CCC(N3CCCCC3)CC2)cc2cn[nH]c12 (racemic) [Example 69, (±)-1-[1,4′]Bipiperidinyl-1′-yl-2-(7-methyl-1H-indazol-5-ylmethyl)-4-[4-(2-oxo-1,4-dihydro-2H-quinazolin-3-yl)-piperidin-1-yl]-butane-1,4-dione]	Y (50%<Y≦75%)	Z (Z>75%)
Cc1cc(CC(NC(=O)N2CCC(N3Cc4ccccc4NC3=O)CC2)C(=O)N2CCC(N3CCCCC3)CC2)cc2cn[nH]c12 (racemic) [Example 16, (±)-4-(2-Oxo-1,4-dihydro-2H-quinazolin-3-yl)-piperidine-1-carboxylic acid[2-[1,4′]bipiperidinyl-1′-yl-1-(7-methyl-1H-indazol-5-ylmethyl)-2-oxo-ethyl]-amide]	Y (50%<Y≦75%)	–
